Laboratory results reported in patent US10072017B2, “Compounds and methods for the treatment of cystic fibrosis” (Flatley Discovery Lab, LLC, priority 2015, dated 2018).

Target: T1, CFTR (Homo sapiens, UniProt P13569, DEL508-508)
T1 construct: Primary CF airway epithelial cells were obtained from the UNC Cystic Fibrosis Tissue Procurement and Cell Culture Core; host or cells: primary CF airway epithelial cells
Assay: Equivalent current assay in Primary CF airway epithelial cells (NAUC)
Assay type: cell-based
Settings: 24 h, normalized to VX809 (3 μM) positive control; for Nauc @ 3 μM: 3 μM test compound; for Nauc @ 10 μM: 10 μM test compound
Method in brief: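 Primary CF airway epithelia differentiated ≥4 weeks at air-liquid interface, treated basolaterally 24 h at 37 °C with test compounds in combination with VX809, 0.1% DMSO vehicle. Equivalent current recorded after 5 μM benzamil, 10 μM forskolin plus 1 μM VX770, then CFTR-172/bumetanide 20 μM; vehicle-subtracted AUC normalized to 3 μM VX809 (NAUC), median of n≥4, sigmoid fit for EC50.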

T1 sequence (P13569 with tags, fused parts or gaps DEL508-508): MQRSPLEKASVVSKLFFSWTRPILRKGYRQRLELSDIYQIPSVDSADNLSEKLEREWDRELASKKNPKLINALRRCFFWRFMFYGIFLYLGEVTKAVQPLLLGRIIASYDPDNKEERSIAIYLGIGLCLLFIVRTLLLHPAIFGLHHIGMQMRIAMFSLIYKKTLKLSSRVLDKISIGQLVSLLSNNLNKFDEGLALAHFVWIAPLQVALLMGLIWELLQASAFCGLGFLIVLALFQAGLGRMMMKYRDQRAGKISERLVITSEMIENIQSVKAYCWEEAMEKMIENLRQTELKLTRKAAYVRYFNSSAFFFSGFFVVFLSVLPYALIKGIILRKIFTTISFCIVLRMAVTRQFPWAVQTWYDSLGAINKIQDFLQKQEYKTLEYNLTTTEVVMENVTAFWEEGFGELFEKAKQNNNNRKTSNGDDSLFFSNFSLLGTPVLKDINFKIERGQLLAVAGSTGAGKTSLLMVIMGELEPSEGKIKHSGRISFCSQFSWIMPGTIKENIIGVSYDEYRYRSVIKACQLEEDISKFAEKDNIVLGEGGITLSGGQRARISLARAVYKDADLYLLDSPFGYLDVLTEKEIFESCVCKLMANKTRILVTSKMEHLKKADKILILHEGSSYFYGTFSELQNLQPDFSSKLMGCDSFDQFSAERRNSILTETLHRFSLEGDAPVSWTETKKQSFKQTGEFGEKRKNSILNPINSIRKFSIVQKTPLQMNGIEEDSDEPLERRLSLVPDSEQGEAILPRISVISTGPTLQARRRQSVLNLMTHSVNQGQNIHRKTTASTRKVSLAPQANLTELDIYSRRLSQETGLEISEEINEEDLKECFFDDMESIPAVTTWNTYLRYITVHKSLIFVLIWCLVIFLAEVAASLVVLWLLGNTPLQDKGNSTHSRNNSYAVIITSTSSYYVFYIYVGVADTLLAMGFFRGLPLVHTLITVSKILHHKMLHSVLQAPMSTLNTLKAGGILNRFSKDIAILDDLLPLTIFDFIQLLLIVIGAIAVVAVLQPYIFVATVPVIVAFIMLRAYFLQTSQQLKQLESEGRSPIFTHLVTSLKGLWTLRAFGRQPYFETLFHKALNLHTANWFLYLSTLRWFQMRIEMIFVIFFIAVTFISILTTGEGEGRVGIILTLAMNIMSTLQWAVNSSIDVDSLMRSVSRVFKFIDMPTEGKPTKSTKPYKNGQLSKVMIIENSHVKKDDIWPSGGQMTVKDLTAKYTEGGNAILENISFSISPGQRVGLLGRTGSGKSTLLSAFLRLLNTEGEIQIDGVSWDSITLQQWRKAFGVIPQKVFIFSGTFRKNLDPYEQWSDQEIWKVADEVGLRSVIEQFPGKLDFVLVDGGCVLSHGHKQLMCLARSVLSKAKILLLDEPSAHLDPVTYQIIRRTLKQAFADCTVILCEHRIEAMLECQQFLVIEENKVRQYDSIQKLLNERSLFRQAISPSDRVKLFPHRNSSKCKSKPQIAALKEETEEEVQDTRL

SMILES | Nauc @ 3 μM | Nauc @ 10 μM
[2H]C([2H])([2H])C1(C([2H])([2H])[2H])CC2C3C(=O)N(c4cc(Cl)cc(Cl)c4)C(=O)C3C3(C(=O)Nc4c(Cl)cc(Cl)cc43)N2C1 (stereo not shown) [Example 185] | +++ (NAUC “+++” refers to an observed NAUC >170% of positive control) | +++ (NAUC “+++” refers to an observed NAUC >170% of positive control)
O=C1[C@H]2[C@@H](C(=O)N1c1cc(Cl)cc(Cl)c1)[C@]1(C(=O)Nc3c(Cl)cc(Cl)cc31)N1CCC[C@@H]21 (single isomer, unassigned) [Example 13] | +++ (NAUC “+++” refers to an observed NAUC >170% of positive control) | +++ (NAUC “+++” refers to an observed NAUC >170% of positive control)
O=C1C2C3CC(C(F)F)CN3C3(C(=O)Nc4c(Cl)cc(Cl)cc43)C2C(=O)N1c1cc(Cl)cc(Cl)n1 (stereo not shown) [Example 131] | + (NAUC “+” refers to an observed NAUC <140% of positive control) | ++ (NAUC “++” refers to an observed NAUC 170-140% of positive control)
O=C1C2C(Cc3c(F)cccc3Cl)NC3(C(=O)Nc4c(Cl)cc(Cl)cc43)C2C(=O)N1c1cc(Cl)cc(Cl)c1 (stereo not shown) [Example 217] | ++ (NAUC “++” refers to an observed NAUC 170-140% of positive control) | ++ (NAUC “++” refers to an observed NAUC 170-140% of positive control)
C[C@@]1(F)CC2C3C(=O)N(c4cc(Cl)cc(Cl)c4)C(=O)C3C3(C(=O)Nc4c(Cl)cc(Cl)cc43)N2C1 (single isomer, unassigned) [Example 161] | +++ (NAUC “+++” refers to an observed NAUC >170% of positive control) | +++ (NAUC “+++” refers to an observed NAUC >170% of positive control)
COc1c(Cl)cc(N2C(=O)C3C4CC(C(F)(F)F)CN4C4(C(=O)Nc5c(Cl)cc(Cl)cc54)C3C2=O)cc1Cl (stereo not shown) [Example 213] | ++ (NAUC “++” refers to an observed NAUC 170-140% of positive control) | +++ (NAUC “+++” refers to an observed NAUC >170% of positive control)
O=C1C2C3CCCN3C3(C(=O)Nc4c(Cl)cc(Cl)cc43)C2C(=O)N1c1cc(Cl)c(OC(F)F)c(Cl)c1 (stereo not shown) [Example 224] | +++ (NAUC “+++” refers to an observed NAUC >170% of positive control) | +++ (NAUC “+++” refers to an observed NAUC >170% of positive control)
C[C@]1(OCc2ccccc2)CC2C3C(=O)N(c4cc(Cl)cc(Cl)c4)C(=O)C3C3(C(=O)Nc4c(Cl)cc(Cl)cc43)N2C1 (single isomer, unassigned) [Example 241] | +++ (NAUC “+++” refers to an observed NAUC >170% of positive control) | +++ (NAUC “+++” refers to an observed NAUC >170% of positive control)
COc1cc(Cl)cc(N2C(=O)C3C4C[C@H](O)CN4C4(C(=O)Nc5c(Cl)cc(Cl)cc54)C3C2=O)c1 (single isomer, unassigned) [Example 115] | + (NAUC “+” refers to an observed NAUC <140% of positive control) | ++ (NAUC “++” refers to an observed NAUC 170-140% of positive control)
[2H]C12C(=O)N(c3cc(Cl)c(OC)c(Cl)c3)C(=O)C1([2H])C1(C(=O)Nc3c(Cl)cc(Cl)cc31)N1C[C@@H](Cl)CC12 (stereo partly shown) [Example 148] | +++ (NAUC “+++” refers to an observed NAUC >170% of positive control) | +++ (NAUC “+++” refers to an observed NAUC >170% of positive control)
C[C@]1(O)CC2C3C(=O)N(c4cc(Cl)cc(Cl)n4)C(=O)C3C3(C(=O)Nc4c(Cl)cc(Cl)cc43)N2C1 (stereo partly shown) [Example 223] | + (NAUC “+” refers to an observed NAUC <140% of positive control) | +++ (NAUC “+++” refers to an observed NAUC >170% of positive control)
O=C1C2C(Cc3ccccc3Cl)NC3(C(=O)Nc4c(Cl)cc(Cl)cc43)C2C(=O)N1c1cc(Cl)cc(Cl)c1 (stereo not shown) [Example 236] | +++ (NAUC “+++” refers to an observed NAUC >170% of positive control) | ++ (NAUC “++” refers to an observed NAUC 170-140% of positive control)
O=C1C2C3CC(F)(F)CN3C3(C(=O)Nc4c(Cl)cc(Cl)cc43)C2C(=O)N1c1cc(Cl)cc(Cl)c1 (stereo not shown) [Example 53] | ++ (NAUC “++” refers to an observed NAUC 170-140% of positive control) | ++ (NAUC “++” refers to an observed NAUC 170-140% of positive control)
[2H]C([2H])([2H])C1(C([2H])([2H])[2H])CC2C3C(=O)N(c4cc(Cl)c(OC)c(Cl)c4)C(=O)C3C3(C(=O)Nc4c(Cl)cc(Cl)cc43)N2C1 (stereo not shown) [Example 214] | +++ (NAUC “+++” refers to an observed NAUC >170% of positive control) | +++ (NAUC “+++” refers to an observed NAUC >170% of positive control)
C[C@@]1(O)CC2C3C(=O)N(c4cc(Cl)cc(Cl)n4)C(=O)C3C3(C(=O)Nc4c(Cl)cc(Cl)cc43)N2C1 (stereo partly shown) [Example 206] | ++ (NAUC “++” refers to an observed NAUC 170-140% of positive control) | +++ (NAUC “+++” refers to an observed NAUC >170% of positive control)
O=C1C2C3C[C@H](F)CN3C3(C(=O)Nc4c(Cl)cc(Cl)cc43)C2C(=O)N1c1cc(Cl)cc(Cl)c1 (stereo partly shown) [Example 49] | ++ (NAUC “++” refers to an observed NAUC 170-140% of positive control) | +++ (NAUC “+++” refers to an observed NAUC >170% of positive control)
COc1c(Cl)cc(N2C(=O)C3C4C[C@H](F)CN4C4(C(=O)Nc5c(Cl)cc(Cl)cc54)C3C2=O)cc1Cl (stereo partly shown) [Example 78] | +++ (NAUC “+++” refers to an observed NAUC >170% of positive control) | +++ (NAUC “+++” refers to an observed NAUC >170% of positive control)
O=C1C2C3CCCN3C3(C(=O)Nc4c(Cl)cc(Cl)cc43)C2C(=O)N1c1cccc(C(F)(F)F)c1 (stereo not shown) [Example 15] | ++ (NAUC “++” refers to an observed NAUC 170-140% of positive control) | +++ (NAUC “+++” refers to an observed NAUC >170% of positive control)
Cc1ccc(CC2NC3(C(=O)Nc4c(Cl)cc(Cl)cc43)C3C(=O)N(c4cc(Cl)cc(Cl)c4)C(=O)C23)cc1 (stereo not shown) [Example 195] | + (NAUC “+” refers to an observed NAUC <140% of positive control) | ++ (NAUC “++” refers to an observed NAUC 170-140% of positive control)
O=C1C2C3CC4(CC4)CN3C3(C(=O)Nc4c(Cl)cc(Cl)cc43)C2C(=O)N1c1cc(Cl)cc(Cl)c1 (single isomer, unassigned) [Example 192] | + (NAUC “+” refers to an observed NAUC <140% of positive control) | ++ (NAUC “++” refers to an observed NAUC 170-140% of positive control)
O=C1C2C3C[C@H](O)CN3C3(C(=O)Nc4ccc(C(F)(F)F)cc43)C2C(=O)N1c1cc(Cl)cc(Cl)c1 (stereo partly shown) [Example 42] | ++ (NAUC “++” refers to an observed NAUC 170-140% of positive control) | ++ (NAUC “++” refers to an observed NAUC 170-140% of positive control)
O=C1C2C3CCCN3C3(C(=O)Nc4c(Cl)cc(Cl)cc43)C2C(=O)N1c1cc(C(F)(F)F)cc(C(F)(F)F)c1 (stereo not shown) [Example 25] | +++ (NAUC “+++” refers to an observed NAUC >170% of positive control) | +++ (NAUC “+++” refers to an observed NAUC >170% of positive control)
O=C1C2C3C[C@H](Cl)CN3C3(C(=O)Nc4c(Cl)cc(Cl)cc43)C2C(=O)N1c1cc(Cl)cc(Cl)c1 (stereo partly shown) [Example 57] | +++ (NAUC “+++” refers to an observed NAUC >170% of positive control) | +++ (NAUC “+++” refers to an observed NAUC >170% of positive control)
O=C1C2C(C(=O)N1c1cc(Cl)cc(Cl)c1)C(c1ccc(F)nc1)N1CCCC21 (stereo not shown) [Example 9, 2-(3,5-Dichlorophenyl)-4-(6-fluoropyridin-3-yl)hexahydropyrrolo[3,4-a]pyrrolizine-1,3(2H,4H)-dione] | + (NAUC “+” refers to an observed NAUC <140% of positive control) | ++ (NAUC “++” refers to an observed NAUC 170-140% of positive control)
COc1c(Cl)cc(N2C(=O)C3C4CC5(CC5)CN4C4(C(=O)Nc5c(Cl)cc(Cl)cc54)C3C2=O)cc1Cl (single isomer, unassigned) [Example 197] | +++ (NAUC “+++” refers to an observed NAUC >170% of positive control) | +++ (NAUC “+++” refers to an observed NAUC >170% of positive control)
O=C1C2C3C[C@H](O)CN3C3(C(=O)Nc4c(Cl)cc(Cl)cc43)C2C(=O)N1c1cc(Br)cc(Br)c1 (stereo partly shown) [Example 45] | + (NAUC “+” refers to an observed NAUC <140% of positive control) | +++ (NAUC “+++” refers to an observed NAUC >170% of positive control)
COc1cccc(CC2NC3(C(=O)Nc4c(Cl)cc(Cl)cc43)C3C(=O)N(c4cc(Cl)cc(Cl)c4)C(=O)C23)c1 (stereo not shown) [Example 200] | ++ (NAUC “++” refers to an observed NAUC 170-140% of positive control) | + (NAUC “+” refers to an observed NAUC <140% of positive control)
O=C1C2C3CC(F)(F)CN3C3(C(=O)Nc4c(Cl)cc(Cl)cc43)C2C(=O)N1c1cc(Cl)cc(Cl)n1 (stereo not shown) [Example 193] | +++ (NAUC “+++” refers to an observed NAUC >170% of positive control) | +++ (NAUC “+++” refers to an observed NAUC >170% of positive control)
O=C1[C@H]2[C@H]3CCCN3[C@]3(C(=O)Nc4c(Cl)cc(Cl)cc43)[C@H]2C(=O)N1c1cc(Cl)cc(Cl)c1 (single isomer, unassigned) [Example 1] | +++ (NAUC “+++” refers to an observed NAUC >170% of positive control) | +++ (NAUC “+++” refers to an observed NAUC >170% of positive control)
